Values joined by “and” are separate entries in the source; they are usually repeats but may differ in a detail not shown here. Identical values can stand only once.
Key:
[1] = Liquid; for mass density: 101.33 kPa
[2] = excess molar enthalpy (molar enthalpy of mixing); xn = mol fraction of the nth substance listed; settings: 101 kPa, Liquid

OCCO [1,2-ethanediol]
Settings	vapor or sublimation pressure
[1], 363.15 K	1.202 kPa and 1.28 kPa and 1.38 kPa

CC(=O)OCCO [2-hydroxyethyl acetate]
[1]
Settings	mass density [kg/m3]	vapor or sublimation pressure
283.16 K	1118.6	–
288.14 K	1113.8	–
293.14 K	1108.9	–
298.14 K	1104.1	–
303.14 K	1099.2	–
308.14 K	1094.4	–
313.14 K	1089.5	–
318.14 K	1084.6	–
323.14 K	1079.7	–
328.14 K	1074.8	–
333.14 K	1069.9	–
338.14 K	1064.9	–
343.14 K	1059.9	–
363.15 K	–	2.228 kPa [middle of 4 runs]
374.42 K	–	3.79 kPa
403.66 K	–	13.81 kPa
417.65 K	–	23.64 kPa
427.41 K	–	33.46 kPa
434.9 K	–	43.3 kPa
440.57 K	–	53.13 kPa
444.25 K	–	62.95 kPa
448.78 K	–	72.79 kPa

CC(=O)OCCO [2-hydroxyethyl acetate] + CC(=O)O
[2], 323.15 K, Flow calorimetry
Settings	excess molar enthalpy [kcal/mol]
x2 = 0.0798	-0.0241
x2 = 0.1906	-0.0502
x2 = 0.2919	-0.0636
x2 = 0.414	-0.0664
x2 = 0.5236	-0.0576
x2 = 0.6224	-0.0437
x2 = 0.7332	-0.0223
x2 = 0.8318	-0.00323
x2 = 0.9203	0.00684

CC(=O)OCCO [2-hydroxyethyl acetate] + CC(=O)OCCOC(C)=O
[2], 323.15 K, Flow calorimetry
Settings	excess molar enthalpy [kcal/mol]
x1 = 0.103	0.0688
x1 = 0.231	0.13
x1 = 0.3777	0.163
x1 = 0.5367	0.167
x1 = 0.7024	0.142
x1 = 0.8299	0.098
x1 = 0.9272	0.0495

CC(=O)OCCO [2-hydroxyethyl acetate] + O
[2], 323.15 K, Flow calorimetry
Settings	excess molar enthalpy [kcal/mol]
x2 = 0.1179	-0.192
x2 = 0.2578	-0.176
x2 = 0.3978	-0.117
x2 = 0.546	-0.0727
x2 = 0.6907	-0.0373
x2 = 0.825	-0.0169
x2 = 0.9399	-0.00478

CC(=O)OCCO [2-hydroxyethyl acetate] + OCCO
[2], 323.15 K, Flow calorimetry
Settings	excess molar enthalpy [kcal/mol]
x1 = 0.0784	0.0435
x1 = 0.1656	0.0808
x1 = 0.2632	0.111
x1 = 0.3732	0.132
x1 = 0.4718	0.139
x1 = 0.5815	0.136
x1 = 0.7043	0.117
x1 = 0.8065	0.0894
x1 = 0.9188	0.043

CC(=O)O [acetic acid]
Settings	vapor or sublimation pressure
[1], 363.15 K	39.68 kPa and 39.67 kPa and 39.66 kPa

CC(=O)O [acetic acid] + OCCO
excess molar enthalpy [kcal/mol], [2]
Settings	298.15 K	323.15 K
x1 = 0.0489	0.00158	–
x1 = 0.049	–	0.00485
x1 = 0.098	0.000992	0.007
x1 = 0.1472	-0.000488	0.00631
x1 = 0.1964	-0.0027	–
x1 = 0.1965	–	0.00519
x1 = 0.2458	-0.00595	–
x1 = 0.2459	–	0.00304
x1 = 0.2953	-0.00837	–
x1 = 0.2954	–	0.00172
x1 = 0.3449	-0.011	–
x1 = 0.345	–	-0.000206
x1 = 0.3946	-0.0134	–
x1 = 0.3947	–	-0.00151
x1 = 0.4444	-0.0147	–
x1 = 0.4445	–	-0.00229
x1 = 0.4944	-0.0151	–
x1 = 0.4945	–	-0.00167
x1 = 0.5444	-0.0136	–
x1 = 0.5445	–	-0.000263
x1 = 0.5946	-0.0107	–
x1 = 0.5947	–	0.00282
x1 = 0.6449	-0.00621	–
x1 = 0.645	–	0.00734
x1 = 0.6953	0.00032	0.0126
x1 = 0.7458	0.00667	0.0189
x1 = 0.7964	0.0138	0.0244
x1 = 0.8471	0.0196	–
x1 = 0.8472	–	0.0289
x1 = 0.898	0.0224	0.0296
x1 = 0.9489	0.0184	0.0225

CC(=O)OCCOC(C)=O [ethylene diacetate]
Settings	vapor or sublimation pressure
[1], 363.15 K	2.744 kPa [middle of 4 runs]

CC(=O)OCCOC(C)=O [ethylene diacetate] + CC(=O)O
[2], 323.15 K, Flow calorimetry
Settings	excess molar enthalpy [kcal/mol]
x2 = 0.1086	0.0418
x2 = 0.2045	0.0657
x2 = 0.2899	0.0791
x2 = 0.3665	0.0863
x2 = 0.4354	0.0894
x2 = 0.4979	0.0894
x2 = 0.5547	0.0877
x2 = 0.6067	0.0834
x2 = 0.6544	0.0784
x2 = 0.6982	0.0736
x2 = 0.7388	0.0669
x2 = 0.7763	0.06
x2 = 0.8112	0.0526
x2 = 0.8437	0.0447
x2 = 0.8741	0.0375
x2 = 0.9025	0.0292
x2 = 0.9291	0.0218
x2 = 0.9542	0.014
x2 = 0.9778	0.00669

CC(=O)OCCOC(C)=O [ethylene diacetate] + O
[2], 323.15 K, Flow calorimetry
Settings	excess molar enthalpy [kcal/mol]
x2 = 0.0844	0.15
x2 = 0.1574	0.24
x2 = 0.2211	0.299
x2 = 0.2771	0.331
x2 = 0.3713	0.36
x2 = 0.4473	0.361
x2 = 0.5624	0.304
x2 = 0.6455	0.245
x2 = 0.7342	0.182
x2 = 0.8138	0.125
x2 = 0.8793	0.0798
x2 = 0.9161	0.0535
x2 = 0.9444	0.0344
x2 = 0.9668	0.0189
x2 = 0.9808	0.00808

CC(=O)OCCOC(C)=O [ethylene diacetate] + OCCO
[2], 323.15 K, Flow calorimetry
Settings	excess molar enthalpy [kcal/mol]
x1 = 0.0219	0.0483
x1 = 0.0451	0.0966
x1 = 0.0698	0.142
x1 = 0.096	0.19
x1 = 0.1241	0.232
x1 = 0.1541	0.268
x1 = 0.1862	0.302
x1 = 0.2208	0.332
x1 = 0.258	0.362
x1 = 0.2982	0.389
x1 = 0.3419	0.412
x1 = 0.3893	0.434
x1 = 0.4411	0.456
x1 = 0.4979	0.466
x1 = 0.5604	0.464
x1 = 0.6296	0.452
x1 = 0.7066	0.418
x1 = 0.7927	0.345
x1 = 0.8898	0.216

O [water]
Settings	vapor or sublimation pressure
[1], 363.15 K	70.09 kPa and 69.93 kPa
